Source: ChEMBL document CHEMBL3351226, “Autumnalamide, a prenylated cyclic peptide from the cyanobacterium Phormidium autumnale, acts on SH-SY5Y cells at the mitochondrial level” (J Nat Prod, 2014)
Activity calls are given as the source filed them. No cut-off for these calls is given here.

How the values were obtained:
SH-SY5Y [1] = assay: Modulation of mitochondrial permeability transition pore opening in human SH-SY5Y cells assessed as reduction in calcein fluorescence at 10 uM by calcein-AM dye based confocal laser scanning microscopy; type: functional
SH-SY5Y [2] = assay: Induction of mitochondrial membrane potential loss in human SH-SY5Y cells at 10 uM incubated for 10 mins by TMRE dye based assay; type: functional
SH-SY5Y [3] = conditions: Homo sapiens, at 10 µM
Description: Induction of mitochondrial membrane potential loss in human SH-SY5Y cells at 10 uM incubated for 10 mins in presence of 0.2 uM CsA by TMRE dye based assay

SH-SY5Y [4] = conditions: Homo sapiens, at 10 µM; remark: listed apart in the source
Description: Modulation of mitochondrial permeability transition pore opening in human SH-SY5Y cells assessed as reduction in calcein fluorescence at 10 uM in presence of 0.2 uM CsA by calcein-AM dye based confocal laser scanning microscopy

SH-SY5Y [5] = conditions: Homo sapiens, at 10 µM; remark: listed apart in the source
Description: Inhibition of SOC in human SH-SY5Y cells assessed as reduction in thapsigargin-induced Ca2+ influx at 10 uM pre-incubated for 5 mins with 0.2 uM CsA followed by compound addition by FURA-2AM dye based fluorescence assay

SH-SY5Y [6] = conditions: Homo sapiens, at 10 µM; remark: listed apart in the source
Description: Inhibition of SOC in human SH-SY5Y cells assessed as reduction in thapsigargin-induced Ca2+ influx incubated for 5 mins at 10 uM by FURA-2AM dye based fluorescence assay

SH-SY5Y [7] = assay: Inhibition of SOC in human SH-SY5Y cells assessed as reduction in thapsigargin-induced Ca2+ influx incubated for 5 mins at 30 uM by FURA-2AM dye based fluorescence assay; type: cell-based
SH-SY5Y [8] = assay: Inhibition of SOC in human SH-SY5Y cells assessed as reduction in thapsigargin-induced Ca2+ influx incubated for 5 mins at 10 uM in presence of 30 uM SKF96365 by FURA-2AM dye based fluorescence assay; type: cell-based
[9] = molecular target: Sodium channel protein type 8 subunit alpha (Homo sapiens) (UniProt Q9UQD0); assay: Effect on human NaV1.6 expressed in HEK293 cells assessed as effect on sodium current by whole cell patch clamp electrophysiology method; type: cell-based
Sodium channel protein type 8 subunit alpha (Homo sapiens), sequence (Q9UQD0 whole entry, looked up): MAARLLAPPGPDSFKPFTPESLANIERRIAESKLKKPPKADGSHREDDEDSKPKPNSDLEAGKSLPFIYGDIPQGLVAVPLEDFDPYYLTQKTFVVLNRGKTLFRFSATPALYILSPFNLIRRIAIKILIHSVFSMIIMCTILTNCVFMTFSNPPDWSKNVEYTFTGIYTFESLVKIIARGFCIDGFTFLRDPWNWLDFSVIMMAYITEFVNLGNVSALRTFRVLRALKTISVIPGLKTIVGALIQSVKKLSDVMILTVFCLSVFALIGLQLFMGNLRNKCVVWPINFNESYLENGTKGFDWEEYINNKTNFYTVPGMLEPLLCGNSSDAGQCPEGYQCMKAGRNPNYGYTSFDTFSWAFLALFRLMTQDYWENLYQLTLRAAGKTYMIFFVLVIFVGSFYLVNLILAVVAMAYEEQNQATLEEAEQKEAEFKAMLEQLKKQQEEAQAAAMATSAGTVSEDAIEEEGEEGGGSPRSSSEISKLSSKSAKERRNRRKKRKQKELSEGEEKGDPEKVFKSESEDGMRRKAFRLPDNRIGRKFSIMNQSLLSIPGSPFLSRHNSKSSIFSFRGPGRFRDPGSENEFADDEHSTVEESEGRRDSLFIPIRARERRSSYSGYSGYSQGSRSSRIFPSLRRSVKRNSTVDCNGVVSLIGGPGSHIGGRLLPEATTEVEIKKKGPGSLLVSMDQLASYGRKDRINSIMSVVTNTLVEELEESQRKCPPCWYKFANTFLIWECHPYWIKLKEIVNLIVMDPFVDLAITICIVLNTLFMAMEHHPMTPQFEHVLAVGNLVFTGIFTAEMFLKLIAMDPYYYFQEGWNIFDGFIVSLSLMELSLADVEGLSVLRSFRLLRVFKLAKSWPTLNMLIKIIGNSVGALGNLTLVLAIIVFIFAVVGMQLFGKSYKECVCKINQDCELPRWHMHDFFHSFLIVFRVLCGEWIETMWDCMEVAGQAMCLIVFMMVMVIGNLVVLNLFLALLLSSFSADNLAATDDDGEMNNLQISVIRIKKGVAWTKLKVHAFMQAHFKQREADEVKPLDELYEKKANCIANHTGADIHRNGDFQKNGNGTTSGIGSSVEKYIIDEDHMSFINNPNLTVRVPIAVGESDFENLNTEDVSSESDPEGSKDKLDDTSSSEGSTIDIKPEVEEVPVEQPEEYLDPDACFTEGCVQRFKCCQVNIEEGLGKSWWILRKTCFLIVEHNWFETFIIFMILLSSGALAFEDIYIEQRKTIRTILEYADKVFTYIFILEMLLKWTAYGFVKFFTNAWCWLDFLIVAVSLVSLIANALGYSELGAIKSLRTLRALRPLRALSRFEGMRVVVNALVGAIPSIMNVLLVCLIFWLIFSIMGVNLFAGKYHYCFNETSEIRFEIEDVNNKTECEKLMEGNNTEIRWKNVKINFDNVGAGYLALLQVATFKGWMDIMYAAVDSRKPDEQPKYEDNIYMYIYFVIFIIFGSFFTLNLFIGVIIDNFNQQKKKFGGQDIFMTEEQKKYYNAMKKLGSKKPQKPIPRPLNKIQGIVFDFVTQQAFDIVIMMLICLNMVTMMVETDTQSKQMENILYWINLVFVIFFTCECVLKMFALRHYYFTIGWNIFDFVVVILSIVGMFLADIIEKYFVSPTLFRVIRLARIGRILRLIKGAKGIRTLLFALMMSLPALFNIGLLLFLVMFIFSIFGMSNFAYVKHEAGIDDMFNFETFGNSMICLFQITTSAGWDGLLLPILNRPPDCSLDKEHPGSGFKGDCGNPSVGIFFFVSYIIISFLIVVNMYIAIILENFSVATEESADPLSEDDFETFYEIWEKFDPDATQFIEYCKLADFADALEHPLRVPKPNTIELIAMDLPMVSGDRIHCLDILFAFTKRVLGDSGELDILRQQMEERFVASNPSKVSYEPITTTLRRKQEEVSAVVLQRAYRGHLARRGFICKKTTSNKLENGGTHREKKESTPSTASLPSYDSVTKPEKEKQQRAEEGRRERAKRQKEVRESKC

[10] = Cytotoxicity against human SH-SY5Y cells assessed as reduction in cell viability at 25 uM incubated for 1 hr by MTT assay; type: cell-based
SH-SY5Y [11] = assay: Effect on cytosolic Ca2+ level in human SH-SY5Y cells at 10 uM by FURA-2AM dye based fluorescence assay; type: functional, cell-based
SH-SY5Y [12] = assay: Inhibition of SOC in human SH-SY5Y cells assessed as reduction in thapsigargin-induced Ca2+ influx incubated for 5 mins at 1 uM by FURA-2AM dye based fluorescence assay; type: cell-based
SH-SY5Y [13] = assay: Inhibition of SOC in human SH-SY5Y cells assessed as reduction in thapsigargin-induced Ca2+ influx incubated for 5 mins by FURA-2AM dye based fluorescence assay; type: cell-based
[14] = Cytotoxicity against human SH-SY5Y cells assessed as reduction in cell viability at 0.1 to 20 uM incubated for 1 hr by MTT assay; type: cell-based
SH-SY5Y [15] = assay: Inhibition of SOC in human SH-SY5Y cells assessed as reduction in thapsigargin-induced Ca2+ influx incubated for 5 mins at 5 uM by FURA-2AM dye based fluorescence assay; type: cell-based
SH-SY5Y [16] = assay: Effect on cytosolic Ca2+ level in human SH-SY5Y cells at 10 uM followed by 1 mM Ca2+ addition 5 mins after compound treatment by FURA-2AM dye based fluorescence assay; type: functional, cell-based
SH-SY5Y [17] = assay: Inhibition of SOC in human SH-SY5Y cells assessed as reduction in thapsigargin-induced Ca2+ influx incubated for 5 mins at 10 uM in presence of 10 uM FCCP by FURA-2AM dye based fluorescence assay; type: cell-based
SH-SY5Y [18] = assay: Effect on VGSC in human SH-SY5Y cells assessed as effect on total sodium current at 0.1 nM to 10 uM by whole cell patch clamp electrophysiology method; type: cell-based

SMILES	inhibition at 10 µM (SH-SY5Y [1]) [%]	inhibition at 10 µM (SH-SY5Y [2]) [%]	inhibition (SH-SY5Y [3])	inhibition (SH-SY5Y [4])	inhibition (SH-SY5Y [5])	inhibition (SH-SY5Y [6])	inhibition (SH-SY5Y [7])	inhibition (SH-SY5Y [8])	Activity [9]	Activity [10] [%]	Activity (SH-SY5Y [11])	inhibition (SH-SY5Y [12])	inhibition (SH-SY5Y [13])	Activity [14]	inhibition (SH-SY5Y [15]) [%]	Activity (SH-SY5Y [16])	inhibition (SH-SY5Y [17]) [%]	Activity (SH-SY5Y [18])
N#CC(C#N)=NNc1ccc(OC(F)(F)F)cc1	20	68	Active	inactive	Active	51%	–	–	–	–	–	–	–	–	–	–	–	–
COc1ccc(CCCOC(Cn2ccnc2)c2ccc(OC)cc2)cc1 (centres undefined)	–	–	–	–	–	–	Active	–	–	–	–	–	–	–	–	–	–	–
CC(C)=CCNC(=N)NCCC[C@H]1NC(=O)[C@H](Cc2ccccc2)NC(=O)[C@H](CC(=O)O)NC(=O)[C@H](CC(C)C)NC(=O)CNC(=O)[C@H]2CCCN2C(=O)[C@H](Cc2ccccc2)NC1=O	30	36	inactive	inactive	inactive	Active	–	Active	inactive	42	inactive	inactive	Dose-dependent effect	Non-toxic	33	inactive	72	inactive
